Values quoted from earlier work in patent publication US20210139999A1, “PROGNOSTIC AND TREATMENT RESPONSE PREDICTIVE METHOD” (Cancer Research Technology Limited, priority 2018, published 2021).

Test system: renal cancer
Settings: 81 patients with response data, single agent arm

Substance: Atezolizumab
- responders: 25%
